# Laboratory results: US9745384B2, “Peptides useful for modulating histone demethylase function” (The Brigham and Women's Hospital, Inc., priority 2012, dated 2017)
# Ends that are not written are not given here.
# What was measured:
# [1] = target: T1, LSD2 (Homo sapiens, UniProt Q8NB78); test: H3K4me2 peptide demethylation assay (MALDI-TOF); type: biochemical; details: H3K4me2 peptide residues 1-21
# T1 construct: 0.15 μM or 1.2 μM purified LSD2 (residues 51-822); His6 (cleaved yes); made in house; host or cells: Sf9 insect cells (baculovirus)
# T1 sequence (Q8NB78 51-822): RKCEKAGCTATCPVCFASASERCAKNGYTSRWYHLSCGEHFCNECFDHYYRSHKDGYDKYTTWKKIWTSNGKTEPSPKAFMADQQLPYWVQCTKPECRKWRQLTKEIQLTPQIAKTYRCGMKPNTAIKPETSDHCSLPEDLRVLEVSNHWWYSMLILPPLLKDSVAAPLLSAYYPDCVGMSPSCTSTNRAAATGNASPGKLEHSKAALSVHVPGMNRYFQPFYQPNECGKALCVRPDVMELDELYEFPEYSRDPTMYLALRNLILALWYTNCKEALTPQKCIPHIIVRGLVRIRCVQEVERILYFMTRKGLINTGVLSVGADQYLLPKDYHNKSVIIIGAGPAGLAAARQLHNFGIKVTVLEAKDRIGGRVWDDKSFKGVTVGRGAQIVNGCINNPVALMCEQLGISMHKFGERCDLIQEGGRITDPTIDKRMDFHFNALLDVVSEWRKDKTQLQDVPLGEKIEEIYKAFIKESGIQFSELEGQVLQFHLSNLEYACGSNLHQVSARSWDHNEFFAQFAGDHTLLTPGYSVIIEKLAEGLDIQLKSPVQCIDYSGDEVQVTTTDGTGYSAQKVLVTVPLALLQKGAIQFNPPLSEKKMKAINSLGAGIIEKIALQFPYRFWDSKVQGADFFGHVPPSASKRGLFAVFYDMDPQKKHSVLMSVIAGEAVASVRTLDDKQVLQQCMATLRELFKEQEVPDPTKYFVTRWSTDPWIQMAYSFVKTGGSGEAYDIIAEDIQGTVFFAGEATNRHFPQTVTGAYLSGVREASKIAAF
# Procedure: FIGS. 12A-12F depict analysis of LSD2 demethylation activity and mutational analysis. […] Demethylation products were analyzed by MALDI-TOF mass spectrometry. 0.15 μM LSD2 can efficiently demethylate the longer H3K4me2 peptide (1-21), but has no detectable activity on the shorter histone peptide (1-15), demethylation of which requires high concentration (1.2 μM) of LSD2. […] It indicates the importance of histone residue 16-21 to LSD2 enzymatic activity and NPAC cofactor activity, supporting our model that NPAC assists enzyme-substrate interactions by creating a new binding site for H3 L20 in the LSD2-NPAC complex. FIG. 12C depicts LSD2 demethylation and NPAC cofactor activity on longer H3K4me2 peptide (1-44). 2 μg H3K4me2 peptide (1-44) were incubated with 0.8 μg GST-LSD2 (1-822) and 2 μg wild-type or F217A full-length GST-NPAC proteins in 100 μl demethylation buffer (50 mM Tris-HCl pH 8.1, 1 mM NAD^+, 0.1 Unit formaldehyde dehydrogenase) at 30° C. for 2 hours. LSD2 alone can efficiently demethylate di-methyl H3K4 of the long peptides, converting large majority of the substrate to H3K4me1. Wild-type NPAC protein can efficiently stimulate LSD2 demethylation, producing unmethylated H3K4. F217A mutation impairs NPAC cofactor activity as expected, showing little stimulatory effect if any. To compare demethylation efficiency, 1.2 μg bio-H3K4me2 peptide (H3 residue 1-21, equal molar ratio to 2 ug H3K4me2 1-44 peptide in above assays) was demethylated by LSD2 under identical conditions (bottom panel). […] The cofactor activity of wild-type NPAC was readily detected under the same conditions. […] Importantly, the demethylation of nucleosomal H3K4me2 was much more efficient in the presence of wild-type NPAC under same conditions (comparing lane 3 verse 4, and 8 verse 9). It is noted that no obvious cofactor effect of F217A peptide or linker regions was detected in nucleosome and peptide demethylation assays (FIG. 6E and data not shown). FIG. 12F depicts Coomassie staining of NPAC proteins used in histone demethylase assays. FIG. 12F discloses “His6” as SEQ ID NO: 75.
# Histone peptides are purchased from Millipore, or custom synthesized. The purity of all peptides are >95% as determined by HPLC and mass spectrometry. In vitro histone demethylase activity assays were performed as described (Shi et al., 2004). Briefly, purified LSD2 and NPAC derived peptides or proteins were incubated with 50 μM H3K4me2 peptides (residues 1-21) in 50 mM Tris-HCl, pH 8.5, 50 mM KCl, 5 mM MgCl2, 5% glycerol at 37° C. for 30 min. The products were desalted through a C18 Ziptip (Millipore) and analyzed on a MALDI-TOF micro MX mass spectrometer (ABI 4700, Applied Biosystems). The laser intensity was kept constant for all of the samples. All MS data were processed using Data Explorer 4.5 (Applied Biosystems). […]
# [2] = target: T2, His-LSD2 (Homo sapiens, UniProt Q8NB78); test: Nucleosome demethylation assay (NPAC cofactor activity for LSD2, immunoblot); type: biochemical; details: threshold dosage of His-LSD2; nucleosomes purified from HeLa
# T2 construct: typically 0.5 μg full-length His-LSD2; made in house; host or cells: Sf9 insect cells
# T2 sequence (Q8NB78 1-822): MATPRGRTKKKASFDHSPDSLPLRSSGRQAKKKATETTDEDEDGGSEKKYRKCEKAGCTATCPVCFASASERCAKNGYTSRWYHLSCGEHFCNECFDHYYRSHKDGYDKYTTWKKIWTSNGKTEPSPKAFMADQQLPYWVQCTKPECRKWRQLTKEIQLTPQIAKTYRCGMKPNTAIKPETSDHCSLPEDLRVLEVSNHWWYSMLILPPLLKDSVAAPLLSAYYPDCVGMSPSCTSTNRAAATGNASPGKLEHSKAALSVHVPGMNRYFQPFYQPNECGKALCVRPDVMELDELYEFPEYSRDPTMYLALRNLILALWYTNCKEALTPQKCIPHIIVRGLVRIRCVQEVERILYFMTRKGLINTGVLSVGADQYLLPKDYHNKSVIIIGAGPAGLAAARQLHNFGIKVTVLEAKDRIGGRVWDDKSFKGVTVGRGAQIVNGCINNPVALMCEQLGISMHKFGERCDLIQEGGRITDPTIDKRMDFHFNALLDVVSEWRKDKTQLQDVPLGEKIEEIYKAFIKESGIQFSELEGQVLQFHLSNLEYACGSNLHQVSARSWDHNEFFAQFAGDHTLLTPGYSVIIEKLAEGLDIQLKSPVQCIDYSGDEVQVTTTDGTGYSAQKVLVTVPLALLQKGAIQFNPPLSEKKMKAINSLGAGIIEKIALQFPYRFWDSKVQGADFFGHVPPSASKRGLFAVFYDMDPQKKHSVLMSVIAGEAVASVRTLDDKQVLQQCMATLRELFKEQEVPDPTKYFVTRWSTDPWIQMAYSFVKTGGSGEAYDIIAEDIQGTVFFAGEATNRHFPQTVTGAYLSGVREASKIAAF
# Procedure: For nucleosome demethylation assays, typically 0.5 μg full-length His-LSD2, 1 μg NPAC protein or peptides, and 2 μg nucleosomes purified from HeLa were used, and demethylation efficiency was analyzed by SDS-PAGE electrophoresis and immunoblot using methylation specific anti-histone H3 antibodies as previously described (Shi et al. 2004).
# [3] = target: T3, LSD2 and NPAC.214-225.F217A (Homo sapiens, UniProt Q8NB78); test: ITC binding of H3K4M peptide with LSD2 in complex with F217A NPAC peptide; details: FIG. 6H
# T3 construct: containing 0.029 mM LSD2 (residues 51-822) or LSD2-NPAC complex; His6 (cleaved yes); made in house; host or cells: LSD2: Sf9 insect cells; NPAC peptide: chemical synthesis
# Procedure: (§1) All proteins and peptides were prepared in 10 mM HEPES, pH 8.0, and 0.1 M NaCl. The data were fitted by software Origin 7.0.
# [4] = target: T4, LSD2 (residues 51-822) (Homo sapiens, UniProt Q8NB78); test: ITC binding of wild-type and mutant NPAC peptides (residues 214-225) with LSD2; details: 15 °C; 3 mM NPAC peptide injected into 0.2 mM LSD2
# T4 construct: Human LSD2 (residues 51-822) was subcloned into a pFastBacl derivative; His6 (cleaved yes); made in house; host or cells: Sf9 insect cells (baculovirus)
# T4 sequence (Q8NB78 51-822): T1 sequence (Q8NB78 51-822)
# Procedure: as §1
# [5] = target: T5, NPAC214-225.WT (Homo sapiens, UniProt Q49A26); test: ITC binding between H3K4M peptide and wild-type NPAC peptide alone; details: FIG. 6H
# T5 construct: wild-type or mutant NPAC peptides (residues 214-225); made in house; host or cells: chemical synthesis
Binding ratio [4],Kd [4] [nM],Δ H [4] [kcal/mol],Δ S [4] [cal/mol/deg],Affinity of NPAC peptide to H3K4M peptide [5],Sequence,Cofactor activity: stimulation of LSD2 demethylation of H3K4me2 peptide [1],Cofactor activity: stimulation of LSD2 demethylation of nucleosomal H3K4me2 [2],Ability of NPAC peptide to stabilize the LSD2-H3K4M peptide interaction [3]
1.10 ± 0.01,930 ± 70,-8.182 ± 0.097,−0.783,,DPHAHHFLLSQT [NPAC.214-225.M6],"but not the F217A mutant, can stimulate LSD2-mediated demethylation of H3K4me2 peptides",abolishes cofactor activity,significantly diminishes the ability of NPAC to stabilize the interaction between LSD2 and the H3K4M peptide
1.06 ± 0.01,920 ± 80,-8.482 ± 0.121,−1.82,no appreciable affinity to H3K4M peptide,DPHFHHFLLSQT [NPAC.214-225.WT],can stimulate LSD2-mediated demethylation of H3K4me2 peptides,sufficient to enhance LSD2 activity in nucleosome demethylation assays,
